Test results taken from ChEMBL document CHEMBL1201862, “PubChem BioAssay data set” (2004).
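Cultured in 96-well plates, cells were exposed to test compound for 48 hours across five concentrations. Abbreviation: GI50, concentration required for 50% inhibition of growth.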 The source made the active and inactive calls. Cut-off read from the data, not from the text of the source: active = GI50 up to about 1.1 µM and inactive = higher.

What was measured:
Assay in all cases: DTP human tumour cell line panel, 48 h
CAKI-1 = tested on: CAKI-1
NCI/ADR-RES = tested on: NCI/ADR-RES
HOP-62 = tested on: HOP-62
EKVX = tested on: EKVX
CCRF-CEM = tested on: CCRF-CEM
MOLT-4 = tested on: MOLT-4
PC-3 = tested on: PC-3
IGROV-1 = tested on: IGROV-1
SK-MEL-2 = tested on: SK-MEL-2
MDA-N = tested on: MDA-N
SR = tested on: SR
LOX IMVI = tested on: LOX IMVI
OVCAR-3 = tested on: OVCAR-3
DU-145 = tested on: DU-145
A549 = tested on: A549
SF-539 = tested on: SF-539
NCI-H522 = tested on: NCI-H522
UACC-62 = tested on: UACC-62
A498 = tested on: A498
T47D = tested on: T47D
ACHN = tested on: ACHN
MDA-MB-231 = tested on: MDA-MB-231
HCT-116 = tested on: HCT-116
HCC 2998 = tested on: HCC 2998
UACC-257 = tested on: UACC-257
SNB-19 = tested on: SNB-19
HL-60 = tested on: HL-60
OVCAR-4 = tested on: OVCAR-4
SK-OV-3 = tested on: SK-OV-3
TK-10 = tested on: TK-10
HT-29 = tested on: HT-29
COLO 205 = tested on: COLO 205
MDA-MB-435 = tested on: MDA-MB-435
SK-MEL-5 = tested on: SK-MEL-5
RPMI-8226 = tested on: RPMI-8226
OVCAR-5 = tested on: OVCAR-5
SNB-75 = tested on: SNB-75
Malme-3M = tested on: Malme-3M
K562 = tested on: K562
UO-31 = tested on: UO-31
M14 = tested on: M14
HOP-92 = tested on: HOP-92
SW-620 = tested on: SW-620
BT-549 = tested on: BT-549
SF-295 = tested on: SF-295
U-251 = tested on: U-251
NCI-H226 = tested on: NCI-H226
KM12 = tested on: KM12
Hs-578T = tested on: Hs-578T
RXF 393 = tested on: RXF 393
SF-268 = tested on: SF-268
SN12C = tested on: SN12C
OVCAR-8 = tested on: OVCAR-8
SK-MEL-28 = tested on: SK-MEL-28
NCI-H23 = tested on: NCI-H23
NCI-H460 = tested on: NCI-H460
HCT-15 = tested on: HCT-15
786-0 = tested on: 786-0
MCF7 = tested on: MCF7

Question: For `O=C(O)c1cc2c(cc1CC(Cc1ccc3c(c1)CCCC3)C(=O)O)CCCC2` (centres undefined), which GI50 (CAKI-1) is on record?
Answer: Its GI50 is > 100 µM (inactive).

Question: What about the GI50 (NCI/ADR-RES) of the same compound?
Answer: Its GI50 is 32.8 µM (inactive).

Question: And the GI50 (HOP-62)?
Answer: Its GI50 is > 100 µM (inactive).

Question: And the GI50 (EKVX)?
Answer: The GI50 was 56 µM (inactive).

Question: And the GI50 (CCRF-CEM)?
Answer: The GI50 was 67.5 µM (inactive).

Question: And the GI50 (MOLT-4)?
Answer: The GI50 was 59.8 µM (inactive).

Question: What about the GI50 (PC-3) of the same compound?
Answer: Its GI50 is > 100 µM (inactive).

Question: And the GI50 (IGROV-1)?
Answer: The GI50 was > 100 µM (inactive).

Question: What about the GI50 (SK-MEL-2) of the same compound?
Answer: The GI50 was > 100 µM (inactive).

Question: What about the GI50 (MDA-N) of the same compound?
Answer: The GI50 was > 100 µM (inactive).

Question: And the GI50 (SR)?
Answer: Its GI50 is > 100 µM (inactive).

Question: What about the GI50 (LOX IMVI) of the same compound?
Answer: The GI50 was 94.4 µM (inactive).

Question: And the GI50 (OVCAR-3)?
Answer: Its GI50 is > 100 µM (inactive).

Question: And the GI50 (DU-145)?
Answer: The GI50 was > 100 µM (inactive).

Question: And the GI50 (A549)?
Answer: The GI50 was > 100 µM (inactive).

Question: And the GI50 (SF-539)?
Answer: The GI50 was 34.4 µM (inactive).

Question: And the GI50 (NCI-H522)?
Answer: Its GI50 is 31.2 µM (inactive).

Question: What about the GI50 (UACC-62) of the same compound?
Answer: The GI50 was > 100 µM (inactive).

Question: And the GI50 (A498)?
Answer: Its GI50 is > 100 µM (inactive).

Question: What about the GI50 (T47D) of the same compound?
Answer: The GI50 was 88.1 µM (inactive).

Question: What about the GI50 (ACHN) of the same compound?
Answer: The GI50 was 56.5 µM (inactive).

Question: What about the GI50 (MDA-MB-231) of the same compound?
Answer: The GI50 was > 100 µM (inactive).

Question: And the GI50 (HCT-116)?
Answer: The GI50 was > 100 µM (inactive).

Question: And the GI50 (HCC 2998)?
Answer: Its GI50 is 32.9 µM (inactive).

Question: What about the GI50 (UACC-257) of the same compound?
Answer: The GI50 was 44.6 µM (inactive).

Question: And the GI50 (SNB-19)?
Answer: Its GI50 is 60 µM (inactive).

Question: And the GI50 (HL-60)?
Answer: The GI50 was 99.8 µM (inactive).

Question: And the GI50 (OVCAR-4)?
Answer: The GI50 was < 0.01 µM (active).

Question: What about the GI50 (SK-OV-3) of the same compound?
Answer: The GI50 was > 100 µM (inactive).

Question: And the GI50 (TK-10)?
Answer: Its GI50 is > 100 µM (inactive).

Question: What about the GI50 (HT-29) of the same compound?
Answer: The GI50 was > 100 µM (inactive).

Question: What about the GI50 (COLO 205) of the same compound?
Answer: Its GI50 is > 100 µM (inactive).

Question: And the GI50 (MDA-MB-435)?
Answer: The GI50 was > 100 µM (inactive).

Question: And the GI50 (SK-MEL-5)?
Answer: Its GI50 is > 100 µM (inactive).

Question: And the GI50 (RPMI-8226)?
Answer: Its GI50 is 63.2 µM (inactive).

Question: What about the GI50 (OVCAR-5) of the same compound?
Answer: The GI50 was > 100 µM (inactive).

Question: And the GI50 (SNB-75)?
Answer: The GI50 was > 100 µM (inactive).

Question: And the GI50 (Malme-3M)?
Answer: The GI50 was > 100 µM (inactive).

Question: What about the GI50 (K562) of the same compound?
Answer: The GI50 was > 100 µM (inactive).

Question: What about the GI50 (UO-31) of the same compound?
Answer: The GI50 was > 100 µM (inactive).

Question: What about the GI50 (M14) of the same compound?
Answer: The GI50 was > 100 µM (inactive).

Question: What about the GI50 (HOP-92) of the same compound?
Answer: The GI50 was 83 µM (inactive).

Question: And the GI50 (SW-620)?
Answer: The GI50 was > 100 µM (inactive).

Question: And the GI50 (BT-549)?
Answer: The GI50 was 59.2 µM (inactive).

Question: And the GI50 (SF-295)?
Answer: Its GI50 is > 100 µM (inactive).

Question: What about the GI50 (U-251) of the same compound?
Answer: Its GI50 is > 100 µM (inactive).

Question: What about the GI50 (NCI-H226) of the same compound?
Answer: Its GI50 is 54.3 µM (inactive).

Question: What about the GI50 (KM12) of the same compound?
Answer: The GI50 was > 100 µM (inactive).

Question: And the GI50 (Hs-578T)?
Answer: Its GI50 is 90.6 µM (inactive).

Question: And the GI50 (RXF 393)?
Answer: Its GI50 is 41.5 µM (inactive).

Question: And the GI50 (SF-268)?
Answer: The GI50 was 39.4 µM (inactive).

Question: And the GI50 (SN12C)?
Answer: The GI50 was > 100 µM (inactive).

Question: And the GI50 (OVCAR-8)?
Answer: Its GI50 is > 100 µM (inactive).

Question: And the GI50 (SK-MEL-28)?
Answer: Its GI50 is > 100 µM (inactive).

Question: And the GI50 (NCI-H23)?
Answer: Its GI50 is > 100 µM (inactive).

Question: What about the GI50 (NCI-H460) of the same compound?
Answer: The GI50 was > 100 µM (inactive).

Question: What about the GI50 (HCT-15) of the same compound?
Answer: Its GI50 is 64.4 µM.

Question: What about the GI50 (786-0) of the same compound?
Answer: Its GI50 is > 100 µM (inactive).

Question: What about the GI50 (MCF7) of the same compound?
Answer: Its GI50 is 38.2 µM (inactive).
